Legend:
Type in all cases: cell-based, Pseudomonas aeruginosa
[1] = system: P. aeruginosa strain PA239; test: Bactericidal assay in FBS-containing medium (FMP); details: within the 3 h of incubation
Procedure: (§1) To test whether PAX follow this common mechanism, the experiment initially examined the bactericidal activity of the top selection, PAX E35, against the MDR P. aeruginosa strain PA239 (resistant to all 12 test antibiotics, including colistin, Table 6). Bactericidal properties were assessed using a medium called FMP (FBS, 15%; MHB2, 25%; PBS, 60%) that is more physiologically relevant than MHB2 with the inclusion of saline and fetal bovine serum, a known inhibitory condition for many AMPs [Di Y P et al., 2020; Deslouches B et al., 2005]. […] In addition, E35 killed 2 logs of the bacterial cells within the first minute of treatment at 2 μM and 4 μM, compared to the non-effective tobramycin (FIG. 6B). No bacterial cells survived E35 treatment after 5-10 minutes of incubation. […]
(§2) Antibacterial assays. […] The bacterial cells were kept in an incubator for 18 hours at 37° C., which is linked to a robotic system that feeds a plate reader every hour with one of 8×96-well plates. This set-up allows the collection of growth kinetic data at A 570 (absorbance at 570 nm) to examine growth inhibition in real time (BioTek Instruments, USA). […] MBC (minimum bactericidal concentration) was determined as the peptide concentration at which complete bacterial killing was observed [Rozek A et al., 2000]. […] Data were analyzed using GraphPad Prism software.

[2] = system: P. aeruginosa strain PA239; test: Killing kinetics; details: PA239, at 2 μM and 4 μM
Procedure: as §1, §2

[3] = system: MDR strain PA239; test: Membrane permeabilization, PI incorporation by real-time video imaging; details: PA239 at high inoculum (5×10^8 CFU/mL); E35 at 8 μM
Source text: (§3) Determination of membrane permeabilization. To examine whether the selected peptides kill their bacterial target mainly by membrane permeabilization, this study used PI incorporation by the MDR strain PA239 (5×10^8 CFU/mL) quantitated by flow cytometry (Novocyte, USA) or visualized by video imaging using the digital microscope EVOS M7000 (Thermo-Fisher, USA) in bright field or red fluorescence channel. In the flow cytometry experiments [Deslouches B et al., 2015], bacterial cells were either untreated or treated with different peptide E35 concentrations in MHB2 for 1 hour at 37° C. The bacteria-peptide mixture was washed with PBS using an Eppendorf centrifuge at top speed for 7 minutes and incubated with PI in the dark for 15 min at room temperature. Tobramycin was used as a negative control with a 3-hour long incubation. For video imaging, the broth medium was reduced to 20% in PBS (treated or untreated) to decrease the rate of cell division and PI incorporation assessed over time. Video images were recorded in real time using the 40× objective either in bright field or red fluorescence channel.

[4] = system: MDR strain PA239; test: Membrane permeabilization, PI incorporation by flow cytometry; details: PA239, 1% triton X-100
Source text: as §3

Compound	bacterial killing [1]	bacterial cells killed within the first minute of treatment [2]	PI incorporation by real-time video imaging [3]	PI incorporation [4]
NC[C@H]1O[C@H](O[C@H]2[C@H](O)[C@@H](O[C@H]3O[C@H](CO)[C@@H](O)[C@H](N)[C@H]3O)[C@H](N)C[C@@H]2N)[C@H](N)C[C@@H]1O [tobramycin]	did not display any substantial bacterial killing	non-effective	did not demonstrate any markedly detectable intracellular PI	
triton X-100				55%
